Active and inactive are the calls of the source. No cut-off for these calls is given here. Non-standard residues stand in square brackets, D forms with d. Residues, ends and D or L forms follow the SMILES beside them. Dip = N[C@H](C(=O)O)C(c1ccccc1)c1ccccc1
How the values were obtained:
MCF7 [1] = test: Cytotoxicity against human MCF7 cells assessed as cell killing at 1 times IC50 measured within 12 hrs by MTT assay; format: functional, cell-based
MCF7 [2] = test: Cytotoxicity against human MCF7 cells assessed as cell killing at 1 times IC50 measured at 24 hrs by MTT assay; format: functional, cell-based
MCF7 [3] = test: Cytotoxicity against human MCF7 cells assessed as cell viability at 2 times IC50 measured within 8 hrs by MTT assay; format: functional, cell-based
MCF7 [4] = test: Cytotoxicity against human MCF7 cells assessed as cell survival at 2 times IC50 incubated for 12 hrs by MTT assay relative to control; format: functional
MCF7 [5] = test: Cytotoxicity against human MCF7 cells assessed as cell survival at 2 times IC50 incubated for 24 hrs by MTT assay relative to control; format: functional
Cell membrane [6] = test: Disruption of cell membrane in human MCF7 cells assessed as LDH release at 2.5 to 40 uM incubated for 1 hr by fluorescence based microplate reader analysis; format: cell membranes; details: dose 2.5-40 µM
Cell membrane [7] = test: Induction of morphological changes in cell membrane of human MCF7 cells assessed as effect on normal cell shape with intact membrane surface at 1 to 2 times IC50 incubated for 1 hr by SEM analysis; format: cell membranes
Cell membrane [8] = test: Disruption of cell membrane integrity in human MCF7 cells assessed as increase in PI fluorescence at 1 times IC50 measured after 0 to 120 mins by laser confocal scanning microscopic analysis; format: cell membranes; details: time 0-120 min
Cell membrane [9] = test: Disruption of cell membrane integrity in human MCF7 cells assessed as increase in PI fluorescence at 2 times IC50 measured after 0 to 120 mins by laser confocal scanning microscopic analysis; format: cell membranes; details: time 0-120 min
Cell membrane [10] = test: Disruption of cell membrane integrity in human MCF7 cells assessed as increase in PI fluorescence at 1 to 2 times IC50 measured after 1 hr by laser confocal scanning microscopic analysis; format: cell membranes
Cell membrane [11] = test: Induction of cell membrane damage in human MCF7 cells assessed as protein leakage at 1 to 2 times IC50 measured after 0.5 to 6 hrs by UV based analysis; format: cell membranes; details: time 0.5-6 hrs
Cell membrane [12] = test: Induction of cell membrane damage in human MCF7 cells assessed as nucleic acid leakage at 1 to 2 times IC50 measured after 0.5 to 6 hrs by UV based analysis; format: cell membranes; details: time 0.5-6 hrs
MCF7 [13] = test: Effect on cell cycle progression in human MCF7 cells at 1 times IC50 measured after 1 hr by PI/RNase staining based flow cytometry analysis; format: functional
MCF7 [14] = test: Induction of cell cycle arrest at G2/M phase in human MCF7 cells assessed as increase in cells at G2/M phase at 1 times IC50 measured after 24 hrs by PI/RNase staining based flow cytometry analysis; format: functional
MCF7 [15] = test: Induction of apoptosis in human MCF7 cells assessed as live cells at 1 times IC50 measured after 24 hrs by Annexin V-FITC staining based flow cytometry analysis (reference value: 92%); format: functional
MCF7 [16] = test: Induction of apoptosis in human MCF7 cells assessed as early apoptotic cells at 1 times IC50 measured after 24 hrs by Annexin V-FITC staining based flow cytometry analysis (reference value: 0.014%); format: functional
MCF7 [17] = test: Induction of apoptosis in human MCF7 cells assessed as late apoptotic cells at 1 times IC50 measured after 24 hrs by Annexin V-FITC staining based flow cytometry analysis (reference value: 1.60%); format: functional
MCF7 [18] = test: Induction of apoptosis in human MCF7 cells assessed as dead cells at 1 times IC50 measured after 24 hrs by Annexin V-FITC staining based flow cytometry analysis (reference value: 6.41%); format: functional
MCF7 [19] = test: Induction of apoptosis in human MCF7 cells assessed as increase in intracellular ROS generation at 1 times IC50 measured after 0 to 360 mins by DCFH-DA staining based analysis; format: functional, cell-based; details: time 0-360 min
MCF7 [20] = test: Antimigratory activity in human MCF7 cells assessed as reduction in cell migration at 1 times IC50 measured after 24 hrs by scratch-wound healing assay; format: functional, cell-based
MCF7 [21] = test: Anti-invasion activity in human MCF7 cells assessed as reduction in number of passing cells on polycarbonate membrane at 1 times IC50 measured after 24 hrs by crystal violet staining based transwell assay; format: functional, cell-based
4T1 [22] = test: Antitumor activity against mouse 4T1 cells implanted in female Balb/c mouse assessed as reduction in tumor growth at 12 micromol/kg, ip administered every other day for 2 weeks and measured every 2 days; format: functional, organism-based; details: dose 12.0 µmol/kg
4T1 [23] = test: Antitumor activity against mouse 4T1 cells implanted in female Balb/c mouse assessed as reduction in tumor weight at 12 micromol/kg, ip administered every other day for 2 weeks and measured every 2 days relative to control; format: functional; parameters: scale not given: the % may be the effect or the level left; details: dose 12 µmol/kg
[24] = Toxicity in female Balb/c mouse implanted with mouse 4T1 cells assessed as reduction in body weight at 12 micromol/kg, ip administered every other day for 2 weeks and measured every 2 days; format: organism-based; details: in vivo, 336 h, dose 12 µmol/kg
[25] = Toxicity in female Balb/c mouse implanted with mouse 4T1 cells assessed as animal death at 12 micromol/kg, ip administered every other day for 2 weeks; format: organism-based; details: in vivo, 336 h, dose 12 µmol/kg
[26] = Toxicity in female Balb/c mouse implanted with mouse 4T1 cells assessed as pathological changes in heart at 12 micromol/kg, ip administered every other day for 2 weeks by H and E staining based analysis; format: organism-based; details: in vivo, 336 h, dose 12 µmol/kg
[27] = Toxicity in female Balb/c mouse implanted with mouse 4T1 cells assessed as pathological changes in liver at 12 micromol/kg, ip administered every other day for 2 weeks by H and E staining based analysis; format: organism-based; details: in vivo, 336 h, dose 12 µmol/kg
[28] = Toxicity in female Balb/c mouse implanted with mouse 4T1 cells assessed as pathological changes in spleen at 12 micromol/kg, ip administered every other day for 2 weeks by H and E staining based analysis; format: organism-based; details: in vivo, 336 h, dose 12 µmol/kg
[29] = Toxicity in female Balb/c mouse implanted with mouse 4T1 cells assessed as pathological changes in lung at 12 micromol/kg, ip administered every other day for 2 weeks by H and E staining based analysis; format: organism-based; details: in vivo, 336 h, dose 12 µmol/kg
[30] = Toxicity in female Balb/c mouse implanted with mouse 4T1 cells assessed as pathological changes in kidney at 12 micromol/kg, ip administered every other day for 2 weeks by H and E staining based analysis; format: organism-based; details: in vivo, 336 h, dose 12 µmol/kg
4T1 [31] = test: Antitumor activity against mouse 4T1 cells implanted in female Balb/c mouse assessed as increase in tumor cell apoptosis at 12 micromol/kg, ip administered every other day for 2 weeks by H and E staining based analysis; format: functional, organism-based; details: dose 12.0 µmol/kg
4T1 [32] = test: Antitumor activity against mouse 4T1 cells implanted in female Balb/c mouse assessed as increase in tumor cell necrosis at 12 micromol/kg, ip administered every other day for 2 weeks by H and E staining based analysis; format: functional, organism-based; details: dose 12.0 µmol/kg
[33] = Acute toxicity in female Balb/c mouse assessed as reduction in survival rate at 30 mg/kg, ip administered as single dose and measured for 7 days; format: organism-based; details: in vivo, 168 h, time 7 day
[34] = Acute toxicity in female Balb/c mouse assessed as reduction in survival rate at 38 to 60 mg/kg, ip administered as single dose and measured for 7 days; format: organism-based; details: in vivo, 168 h, dose 38-60 mg/kg, time 7 day
[35] = Acute toxicity in ip dosed female Balb/c mouse administered as single dose and measured for 7 days by karber method; format: organism-based; details: in vivo, time 7 day
[36] = Acute toxicity in female Balb/c mouse assessed as heart damage at approximately LD50 administered as single ip dose by H and E staining based analysis; format: organism-based; details: in vivo
[37] = Acute toxicity in female Balb/c mouse assessed as shrinking cytoplasm in kidney at approximately LD50 administered as single ip dose by H and E staining based analysis; format: organism-based; details: in vivo
[38] = Acute toxicity in female Balb/c mouse assessed as necrosis in kidney at approximately LD50 administered as single ip dose by H and E staining based analysis; format: organism-based; details: in vivo
HeLa = test: Cytotoxicity against human HeLa cells assessed as inhibition of cell growth incubated for 1 hr by MTT assay; format: functional, cell-based
MCF7 [39] = test: Cytotoxicity against human MCF7 cells assessed as inhibition of cell growth incubated for 1 hr by MTT assay; format: functional, cell-based; details: MCF7, 1 h
[40] = Cytotoxicity against RG cells (unknown origin) assessed as inhibition of cell growth incubated for 1 hr by MTT assay; format: functional, cell-based
A549 = test: Cytotoxicity against human A549 cells assessed as inhibition of cell growth incubated for 1 hr by MTT assay; format: functional, cell-based; details: A549, 1 h
[41] = Cytotoxicity against HK-2 cells assessed as inhibition of cell growth incubated for 1 hr by MTT assay; format: toxicity, cell-based; details: human
[42] = Therapeutic index, ratio of HC10 for mouse RBC to IC50 for cytotoxicity against human HeLa cells; format: toxicity, cell-based; details: mouse RBC and HeLa cells, read-out: TI
[43] = Therapeutic index, ratio of HC10 for mouse RBC to IC50 for cytotoxicity against human MCF7 cells; format: toxicity, cell-based; details: mouse RBC and MCF7 cells, read-out: TI
[44] = Therapeutic index, ratio of HC10 for mouse RBC to IC50 for cytotoxicity against RG cells (unknown origin); format: toxicity, cell-based; details: mouse RBC and RG cells, read-out: TI
[45] = Therapeutic index, ratio of HC10 for mouse RBC to IC50 for cytotoxicity against human A549 cells; format: toxicity, cell-based; details: mouse RBC and A549 cells, read-out: TI

CC(=O)O[C@H]1C(=O)[C@@]2(C)[C@H]([C@H](OC(=O)c3ccccc3)[C@]3(O)C[C@H](OC(=O)[C@H](O)[C@@H](NC(=O)c4ccccc4)c4ccccc4)C(C)=C1C3(C)C)[C@]1(OC(C)=O)CO[C@@H]1C[C@@H]2O [PACLITAXEL]
Activity (MCF7 [1]): inactive | Activity (MCF7 [2]): Active | Activity (MCF7 [3]): inactive | Survival (MCF7 [4]): ~23.8% | Survival (MCF7 [5]): ~9.7% | Activity (Cell membrane [6]): inactive | Activity (Cell membrane [7]): inactive | Activity (Cell membrane [8]): inactive | Activity (Cell membrane [9]): inactive | Activity (Cell membrane [10]): inactive | Activity (Cell membrane [11]): inactive | Activity (Cell membrane [12]): inactive | Activity (MCF7 [13]): inactive | Activity (MCF7 [14]): Active | Activity (MCF7 [15]): 30.2% | Activity (MCF7 [16]): 48.4% | Activity (MCF7 [17]): 20.3% | Activity (MCF7 [18]): 1.13% | Activity (MCF7 [19]): Active | Activity (MCF7 [20]): Active | Activity (MCF7 [21]): Active | Activity (4T1 [22]): Active | Activity (4T1 [23]): 21.6% | Activity [24]: Non-Toxic | Activity [25]: Non-Toxic | Activity [26]: Non-Toxic | Activity [27]: Non-Toxic | Activity [28]: Non-Toxic | Activity [29]: Non-Toxic | Activity [30]: Non-Toxic | Activity (4T1 [31]): Active | Activity (4T1 [32]): Active | Activity [33]: Non-Toxic | Activity [34]: Toxic | LD50 at 168 h [35]: 39.7 mg/kg | Activity [36]: Non-Toxic | Activity [37]: Toxic | Activity [38]: Toxic

NCCCC[C@H](NC(=O)[C@@H](NC(=O)[C@H](Cc1c[nH]c2ccccc12)NC(=O)[C@H](CCCCN)NC(=O)[C@H](CCCCN)NC(=O)[C@H](Cc1c[nH]c2ccccc12)NC(=O)[C@H](Cc1c[nH]c2ccccc12)NC(=O)[C@H](CCCCN)NC(=O)[C@@H](N)CCCCN)C(c1ccccc1)c1ccccc1)C(N)=O [RUXOTEMITIDE] (H-KKWWKKW[Dip]K-NH2)
IC50 (HeLa): 14.7 µM | IC50 (MCF7 [39]): 63.5 µM | IC50 [40]: 43.2 µM | IC50 (A549): 64.1 µM | IC50 at 1 h [41]: 78.4 µM | selectivity ratio [42]: 10.6 | selectivity ratio [43]: 2.45 | selectivity ratio [44]: 3.6 | selectivity ratio [45]: 2.43

Source: ChEMBL document CHEMBL5584231, “Rational design of a new short anticancer peptide with good potential for cancer treatment” (Eur J Med Chem, 2024)
